One series deals with T1, recombinant human RAD51 (Homo sapiens, UniProt Q06609).
T1 construct: made in house; host or cells: E. coli Rosetta2(DE3)pLysS, pET15b-His-hRAD51
T1 sequence (Q06609 1-339): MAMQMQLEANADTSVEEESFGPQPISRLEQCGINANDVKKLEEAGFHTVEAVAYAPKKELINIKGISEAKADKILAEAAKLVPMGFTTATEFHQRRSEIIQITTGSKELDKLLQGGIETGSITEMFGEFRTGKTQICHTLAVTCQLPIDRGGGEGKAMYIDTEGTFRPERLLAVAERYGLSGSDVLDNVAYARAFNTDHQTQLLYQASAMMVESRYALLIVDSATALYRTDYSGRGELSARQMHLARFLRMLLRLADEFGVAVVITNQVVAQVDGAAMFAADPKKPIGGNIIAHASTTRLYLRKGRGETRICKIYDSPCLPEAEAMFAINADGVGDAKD
The experiment in a line: Microscale thermophoresis (MST) binding assay. Particulars: labeled His-hRAD51, 35d up to 40 μM, three replicates, read-out: Kd (RAD51-35d interaction). As for the experimental part:
To further assess the physical interaction between 35d and RAD51, a microscale thermophoresis (MST) assay was performed on the recombinant human RAD51 (see Experimental Section). The binding assay allowed us to determine the dissociation constant (Kd) for the RAD51-35d interaction and binding. […] This is in agreement with the ELISA assay, supporting the initial hypothesis that 35d could act as a RAD51-BRCA2 disruptor.
The recombinant protein hRAD51 was labeled with the Monolith His-Tag labeling kit RED-tris-NTA 2nd Generation kit (NanoTemper Technologies). MST measurements were simultaneously performed on 16 capillaries containing a constant concentration (25 nM) of labeled RED-tris-NTA 2nd Generation His-hRAD51 protein and 16 different concentrations of 35d in order to determine a concentration-dependent MST binding curve. The highest 35d concentration tested was 40 μM. Measurements were carried out in MST buffer (20 mM Hepes (pH 8.00), 250 mM KCl, 0.1 mM EDTA, 5% (v/v) glycerol, 5% DMSO).
In general terms: Microscale thermophoresis detects binding through changes in fluorescence in a small temperature gradient.

For series [1], the system named is BxPC3 cells. The experiment in a line: Micronuclei visualization. Format: cell-based, human. Particulars: BxPC3, 72 h, 20 μM 35d + 10 μM olaparib vs single agents; p <0.01. How it is done:
For micronuclei visualization, cells were grown on coverslips placed in a 6-multiwell plate (5 × 10^5 cells/well). After a 72 h treatment with olaparib (10 μM) or 35d (20 μM) given alone or in combination, wells were rapidly washed with PBS and then fixed for 10 min with cold methanol. Coverslips were then air-dried and mounted on glass slides using a solution of DAPI (5 μg/mL)/DABCO. Images were acquired on a Nikon fluorescent microscope equipped with filters for DAPI. […] The percentage of cells bearing micronuclei was estimated by two independent observers, by analyzing 100–250 cells for each treatment sample.

Series [2] is described as follows: Solubility (as observed in cell culture media / stated). In kind it is physicochemical.
The subject of the next series is Capan-1 cells. The experiment in a line: Immunofluorescence of nuclear γ-H2AX foci (DNA damage). Particulars: Capan-1, 48 h, 20 μM 35d coadministered with 10 μM olaparib vs olaparib alone. In kind it is cell-based, human. As for the experimental part: (§1) To evaluate DNA damage through γH2AX nuclear foci, BXPC3 and Capan1 cells were seeded on glass coverslips in 6-well tissue culture plate (2 × 10^5 cells/well) and allowed to adhere overnight. After 48 h treatment with olaparib (10 μM) or 35d (20 μM) given alone or in combination, cultures growing on coverslips were fixed and treated as described above. For this experiment, the used antibodies were a rabbit polyclonal anti-γH2AX (Abcam, 1:1000 in 5% BSA/PBS) and a secondary anti-rabbit rhodamine-labeled (Novus Biologicals, 1:1000 in 1% BSA/PBS). For both experiments, images were acquired using a Nikon fluorescent microscope equipped with filters for FITC, TRITC, and DAPI. The percentage of cells bearing nuclear foci was estimated by two independent observers, by analyzing 100–250 cells for each treatment sample.

Another series relates to BxPC-3 cells. The description is as above. Format: cell-based, human. Particulars: BxPC-3, 48 h, 20 μM 35d + 10 μM olaparib vs olaparib alone. How it is done: as §1
In series [3] the test system is BxPC3 cells. The experiment in a line: Cell viability assay (CellTiter-Glo), association with olaparib. Format: cell-based, human. The source says: Our working hypothesis is that compounds disrupting RAD51-BRCA2 interaction should affect HR repair and increase the efficacy of PARPi in treating breast, ovarian, and pancreatic cancer. For its clinical relevance, pancreatic adenocarcinoma was selected as our final model for cell-based experiments, and BxPC3 cells were selected for a straightforward comparison with the previously reported triazole derivatives.[30],[31] BxPC3 is derived from a human adenocarcinoma that expresses fully functional BRCA2.[38] As shown in Table 2 and according to the rationale of our hypothesis, our preliminary screening consisted of verifying the efficacy of compounds in inhibiting cell HR and/or in increasing the antiproliferative effect of olaparib. […] HR activity was assessed by evaluating the recombination rate between two transfected plasmids, using a commercially available assay. […] As for the emissucinic acid-containing compounds (4d, 12d, 18d, 20d–23d, 30d, 31d), one of the reasons for their lower potency in cells might be the general poor permeability, likely related to the ionizable acid moiety. […] We then characterized 35d in additional biophysical and cell-based experiments.
Cell viability was assessed with the CellTiter-Glo luminescent cell viability assay from Promega. For this experiment, 1 × 10^4 cells in 200 μL of culture medium were seeded into each well of a 96-multiwell white body plate and allowed to adhere overnight. After 72 h incubation in the presence of olaparib (10 μM) and the RAD51-BRCA2 disruptors alone or in combination, the plate was allowed to equilibrate at room temperature for 30 min and the CellTiter-Glo reactive was directly added to each well. The plate was kept on a shaker for 10 min to induce cell lysis, and its luminescence was measured with a Fluoroskan Ascent FL reader (Labsystems).
On the technique in general: In ATP-based viability assays light output follows the ATP content of the culture.

Values after ≈ are worked out from the molar mass of the structure shown. Where two headings read alike, the source gives them in different places.

Broadly, the Kd is the free concentration of one partner at which half of the binding sites on the other are occupied at equilibrium, for simple one-to-one binding. A word on the solubility: it is the dissolved amount per volume that the medium holds. For `CCC(=O)N1N=C(c2c(-c3ccccc3)c3cc(Cl)ccc3[nH]c2=O)CC1c1ccc(OC)cc1` (stereo not drawn) [Compound 35d, 6-Chloro-3-(5-(4-methoxyphenyl)-1-propionyl-4,5-dihydro-1H-pyrazol-3-yl)-4-phenylquinolin-2(1H)-one], the Kd on recombinant human RAD51 amounted to 11 ± 6 µM. Further, the cells bearing micronuclei entry in the series on BxPC3 cells [1] is listed as “markedly more frequent”. For the same compound, the solubility in series [2] (HR assay medium (RPMI, 0.6% DMSO), kinetic from dmso stock, read-out: upper limit in terms of solubility) was 40 µM (≈ 19.4 µg/mL); in series [2] (stated in conclusions) it was “low solubility”. Moreover, the “γ-H2AX labeling in nuclei” value in the series on Capan-1 cells was “not further enhanced”; in the series with BxPC-3 cells it was “increased”. In addition, the “combination index (CI) with olaparib” value with BxPC3 cells [3] (BxPC3, 10 μM 35d + 10 μM olaparib) was around 1; in the series with BxPC3 cells [3] (BxPC-3, 20 μM 35d + 10 μM olaparib, CI < 0.8 = synergism), below 0.8. In addition, the olaparib association entry in the series on BxPC3 cells [3] (BxPC3, at 15 μM) was “olaparib association = present at 15 μM”.

For the origin of these results see PMC7997579, “Synthetic Lethality in Pancreatic Cancer: Discovery of a New RAD51-BRCA2 Small Molecule Disruptor That Inhibits Homologous Recombination and Synergizes with Olaparib” (Journal of Medicinal Chemistry, 2020).
